Results taken from PubChem BioAssay (NCI).
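Dose response: 5 concentrations. Exposure: 48 h. Format: 96-well plates. Endpoint: linear interpolation; highest concentration if not reached. TGI denotes the concentration required for complete inhibition of growth.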

Tests used:
Assay in all cases: growth of human tumour cells (NCI), 48 h
PC-3 prostate = tested on: PC-3 prostate
UO-31 renal = tested on: UO-31 renal
OVCAR-4 ovarian = tested on: OVCAR-4 ovarian
SF-539 CNS = tested on: SF-539 CNS
LOX IMVI melanoma = tested on: LOX IMVI melanoma
CCRF-CEM leukemia = tested on: CCRF-CEM leukemia
TK-10 renal = tested on: TK-10 renal
HCT-15 colon = tested on: HCT-15 colon
MDA-MB-435 = tested on: MDA-MB-435
NCI-H23 lung = tested on: NCI-H23 lung
DU-145 prostate = tested on: DU-145 prostate
SNB-19 CNS = tested on: SNB-19 CNS
MDA-MB-231 breast = tested on: MDA-MB-231 breast
KM12 colon = tested on: KM12 colon
MOLT-4 leukemia = tested on: MOLT-4 leukemia
NCI-H460 lung = tested on: NCI-H460 lung
K-562 leukemia = tested on: K-562 leukemia
NCI-H522 lung = tested on: NCI-H522 lung
NCI-H226 lung = tested on: NCI-H226 lung
HT29 colon = tested on: HT29 colon
SF-268 CNS = tested on: SF-268 CNS
HOP-62 NSCLC = tested on: HOP-62 NSCLC
RXF 393 renal = tested on: RXF 393 renal
CAKI-1 renal = tested on: CAKI-1 renal
HL-60(TB) leukemia = tested on: HL-60(TB) leukemia
SNB-75 CNS = tested on: SNB-75 CNS
IGROV1 ovarian = tested on: IGROV1 ovarian
HS 578T breast = tested on: HS 578T breast
SW-620 colon = tested on: SW-620 colon
SN12C renal = tested on: SN12C renal
MCF7 breast = tested on: MCF7 breast
SK-MEL-28 melanoma = tested on: SK-MEL-28 melanoma
SK-MEL-5 melanoma = tested on: SK-MEL-5 melanoma
T-47D breast = tested on: T-47D breast
M14 melanoma = tested on: M14 melanoma
A549 NSCLC = tested on: A549 NSCLC
MDA-N = tested on: MDA-N
UACC-62 melanoma = tested on: UACC-62 melanoma
SK-OV-3 ovarian = tested on: SK-OV-3 ovarian
MALME-3M melanoma = tested on: MALME-3M melanoma
HCC-2998 colon = tested on: HCC-2998 colon
RPMI-8226 leukemia = tested on: RPMI-8226 leukemia
COLO 205 colon = tested on: COLO 205 colon
OVCAR-8 ovarian = tested on: OVCAR-8 ovarian
NCI/ADR-RES ovarian = tested on: NCI/ADR-RES ovarian
U251 CNS = tested on: U251 CNS
A498 renal = tested on: A498 renal
SF-295 CNS = tested on: SF-295 CNS
ACHN renal = tested on: ACHN renal
HCT-116 colon = tested on: HCT-116 colon
SK-MEL-2 melanoma = tested on: SK-MEL-2 melanoma
OVCAR-5 ovarian = tested on: OVCAR-5 ovarian
EKVX NSCLC = tested on: EKVX NSCLC
OVCAR-3 ovarian = tested on: OVCAR-3 ovarian
BT-549 breast = tested on: BT-549 breast
786-0 renal = tested on: 786-0 renal
HOP-92 NSCLC = tested on: HOP-92 NSCLC
SR leukemia = tested on: SR leukemia
UACC-257 melanoma = tested on: UACC-257 melanoma

Measured: TGI

CC(C)(CCCCC(C)(C)C1NC(=O)N1)C1NC(=O)N1
not listed: OVCAR-3 ovarian | BT-549 breast | 786-0 renal | HOP-92 NSCLC | SR leukemia | UACC-257 melanoma
> 10 µM: all other assays above

CC(C)(C)OC/C=C1\C(=O)O[C@H]2C[C@@H](O[Si](C)(C)C(C)(C)C)C[C@@H]12
90.7 µM: NCI-H522 lung
not listed: SF-539 CNS | HL-60(TB) leukemia | HS 578T breast | UACC-62 melanoma
> 100 µM: all other assays above

O=[N+]([O-])/C(C(Cl)=C(Cl)Cl)=C(\Nc1ccccc1)n1nnc2ccccc21
38.7 µM: HS 578T breast
65.9 µM: CCRF-CEM leukemia
36.3 µM: SF-268 CNS
93.6 µM: HOP-62 NSCLC
75.2 µM: SK-MEL-2 melanoma
93 µM: RPMI-8226 leukemia
61.2 µM: NCI-H23 lung
70.2 µM: BT-549 breast
48.9 µM: UO-31 renal
86.5 µM: MDA-MB-435
35 µM: OVCAR-4 ovarian
31.2 µM: LOX IMVI melanoma
48 µM: KM12 colon
not listed: TK-10 renal | DU-145 prostate | NCI-H522 lung | RXF 393 renal | HL-60(TB) leukemia | IGROV1 ovarian | SK-MEL-5 melanoma | HOP-92 NSCLC | SR leukemia
> 100 µM: all other assays above

O=c1c(Br)cc2c(-c3ccccc3)c3cc(Br)c(O)c(Br)c3oc-2c1Br
39.4 µM: HT29 colon
63.7 µM: OVCAR-4 ovarian
not listed: NCI-H522 lung | SNB-75 CNS | SK-MEL-2 melanoma | BT-549 breast | SR leukemia
> 100 µM: all other assays above
